Source: patent US9078874B2, “Composition and method for treating cognitive impairments in down syndrom subjects” (Centre National De La Recherche Scientifique—CNRS, priority 2009, dated 2015)

Legend:
[1] = tested on: cognitively-normal wildtype rodents; conditions: cited from earlier work
euploid and Ts65Dn mice = experiment: Pro-convulsant effects after pentylenetetrazol (45 mg/kg); assay type: in vivo; conditions: sub-convulsant dose 45 mg/kg i.p.
Protocol: For testing the pro-convulsant effects of α5IA, a sub-convulsant dose of pentylenetetrazole (45 mg/kg i.p.) that induces myoclonic convulsions in about 50% of mice was injected i.p. 20 min after injection of α5IA (50 mg/kg) or placebo.
The proconvulsant action of the α5IA was measured after injection of a subconvulsive dose of pentylenetetrazole. Mice were injected with either vehicle or the α5IA (50 mg/kg i.p) and 20 min later they received an intraperitoneal injection of 45 mg/kg of pentylenetetrazole. […] Six to 7 mice were used for each condition. The latency to the first myoclonic jerk episode and the convulsion grade were recorded during a 1200-s period of observation. Four grades were empirically determined: Grade 0: no effect; grade 1: tail up and curved; grade 2: reversed tail and convulsive shivers; grade 3: myoclonic convulsions.
We then tested the proconvulsant effect of α5IA by injecting it (50 mg/kg) 20 min before a sub-convulsant dose of pentylenetetrazol (45 mg/kg) that induces myoclonic convulsions in about 50% of mice.

Ts65Dn mice = conditions: mouse, in vivo; cited from earlier work
[2] = tested on: children with Down syndrome; conditions: 7 to 13 year-old children with Down syndrome; even at doses associated with adverse effects; cited from earlier work
[3] = in vivo; cited from earlier work

Structure (SMILES): CCOC(=O)c1ncn2c1[C@@H]1CCCN1C(=O)c1cc(OC)ccc1-2 [L-655,708]
- acquisition in the reference memory water maze test [1]: can facilitate acquisition

Structure (SMILES): C1CCc2nnnn2CC1 [pentylenetetrazole]
- mice with myoclonic convulsions (euploid and Ts65Dn mice): about 50 % of mice
- acquisition in the reference memory water maze test [1]: can facilitate acquisition
- cognition enhancement effect in treated mice compared to control non-treated mice (Ts65Dn mice): did not show a cognition enhancement effect

Structure (SMILES): NC(=O)CN1CCCC1=O [piracetam]
- cognitive and behavioural measures [2]: neither cognitive nor behavioural measures demonstrated improvement

Structure (SMILES): COC(=O)c1cc2c(cn1)[nH]c1ccccc12 [β-CCM]
- convulsant liability [3]: proconvulsant or convulsant
- spatial learning in the Morris watermaze [3]: enhanced spatial learning
